Assay results as given in ChEMBL document CHEMBL1131664, “Design and synthesis of potent and selective 5,6-fused heterocyclic thrombin inhibitors” (Bioorg Med Chem Lett, 1999).

Key:
Prothrombin = Prothrombin (Homo sapiens, UniProt P00734); assay: Inhibition of Coagulation factor II
[1] = Inhibition of factor Xa
Serine protease 1 = Serine protease 1 (Homo sapiens, UniProt P07477); assay: Inhibitory activity against trypsin
Rattus norvegicus = assay: Effect on thrombus weight in rat vena cava thrombosis model (iv administration); format: functional

Chain of Serine protease 1 (P07477 whole entry): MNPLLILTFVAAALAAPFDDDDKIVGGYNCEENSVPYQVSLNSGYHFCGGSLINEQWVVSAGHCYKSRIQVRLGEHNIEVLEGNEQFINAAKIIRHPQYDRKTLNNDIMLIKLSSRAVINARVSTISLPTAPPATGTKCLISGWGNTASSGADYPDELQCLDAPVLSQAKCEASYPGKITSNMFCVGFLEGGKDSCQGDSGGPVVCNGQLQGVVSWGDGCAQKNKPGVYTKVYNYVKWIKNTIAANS

Compound	Ki (Prothrombin) [nM]	Ki [1] [nM]	Ki (Serine protease 1) [nM]	ID50 (Rattus norvegicus) [mg/kg/h]
N=C(N)c1ccc2c(ccn2CC(=O)N2CCC(Cc3cccc(F)c3)CC2)c1	24	11000		
N=C(N)c1c[nH]c2cc(S(=O)(=O)N3CCC(Cc4ccccc4)CC3)ccc12	210	3300	1200	
N=C(N)c1ccc2c(cnn2CC(=O)N2CCC(Cc3ccccc3)CC2)c1	140	2900	> 6000	
N=C(N)c1ccc2c(ccn2CC(=O)N2CCC(C(O)c3ccccc3)CC2)c1 (stereo not given)	> 21000	16000	> 15000	
COC(=O)/C=C/c1cn(CC(=O)N2CCC(Cc3ccccc3)CC2)c2ccc(C(=N)N)cc12	28	1200	280	
N=C(N)c1ccc2c(ccn2CC(=O)N2CCC(Cc3ccccc3)CC2)c1	18	10300	> 15000	0.8
N=C(N)c1ccc2c(c1)c(CCO)cn2CC(=O)N1CCC(Cc2ccccc2)CC1	7	2400	310	
N=C(N)c1ccc2c(ccn2CC(=O)N2CCC(C(=O)c3ccccc3)CC2)c1	> 21000	9500	> 15000	
CC(=O)N[C@H](Cc1ccccc1)C(=O)N1CCC[C@H]1C(=O)N[C@@H](CCCN=C(N)N)B(O)O			9	0.04
N=C(N)c1ccc2c(c1)c(CC(=O)O)cn2CC(=O)N1CCC(Cc2ccccc2)CC1	19	3000		
N=C(N)c1ccc2c(ccn2CC(=O)N2CCC(Cc3ccccc3F)CC2)c1	24	23000		
N=C(N)c1ccc2c(c1)ncn2CC(=O)N1CCC(Cc2ccccc2)CC1	300	25000		
COC(=O)Cc1cn(CC(=O)N2CCC(Cc3ccccc3)CC2)c2ccc(C(=N)N)cc12	7.4	400	140	
